{"source": "patent CN110478361A", "about": "“一种安全性高的灯盏花乙素药物组合物及其制备方法” (KUNMING LONGJIN PHARMACEUTICAL CO Ltd, priority 2018, dated 2019)", "key": {"[1]": {"settings": "aglycone and active metabolite of scutellarin, compared with scutellarin; cited from earlier work"}, "[2]": {"settings": "in air; cited from earlier work"}, "[3]": {"test": "Repeated-dose intravenous toxicity in Beagle dogs, four weeks with four-week recovery", "type": "in vivo, dog", "settings": "in vivo, iv; Beagle dog, i.v. once daily, 28 days, recovery 28 days; 25, 50, 100 mg/kg; injectable breviscapine made from Example 1; read-out: no observed adverse effect level (NOAEL)"}, "Beagle dogs (Beagle犬) [4]": {"system": "Beagle dogs (Beagle犬)", "test": "Repeated-dose intravenous toxicity in Beagle dogs, four weeks with four-week recovery", "type": "in vivo, dog", "settings": "worked out from dog 28-day i.v. NOAEL"}, "SD rats (SD大鼠) [5]": {"system": "SD rats (SD大鼠)", "test": "Repeated-dose intravenous toxicity in SD rats, four weeks with four-week recovery", "type": "in vivo, rat", "settings": "worked out from rat 28-day i.v. NOAEL"}, "[6]": {"test": "Repeated-dose intravenous toxicity in SD rats, four weeks with four-week recovery", "type": "in vivo, rat", "settings": "in vivo, iv; SD rat, i.v. once daily, 28 days, recovery 29 days; 200, 400, 600 mg/kg; injectable breviscapine made from Example 1; read-out: no observed adverse effect level (NOAEL)"}, "SD rats (SD大鼠) [7]": {"system": "SD rats (SD大鼠)", "test": "Single-dose intravenous toxicity in SD rats", "type": "in vivo, rat", "settings": "worked out from rat single i.v. MTD"}, "[8]": {"test": "Single-dose intravenous toxicity in SD rats", "type": "in vivo, rat", "settings": "in vivo, iv; SD rat, single i.v., injectable breviscapine made from Example 1; 500, 750, 1000 mg/kg; 14 days observation; read-out: maximum tolerated dose (MTD)"}, "[9]": {"test": "Clarity test (compared with yellow-green No. 6 standard colour solution, Chinese Pharmacopoeia 2015, general chapter 0901, method 1)", "type": "physicochemical", "settings": "0.02 mg per mL in 1% sodium hydrogencarbonate solution, inspected within 5 minutes"}, "[10]": {"test": "Single-dose intravenous toxicity in Beagle dogs", "type": "in vivo, dog", "settings": "in vivo, iv; Beagle dog, single i.v., injectable breviscapine made from Example 1; 200, 400 mg/kg; 14 days observation; read-out: maximum tolerated dose (MTD)"}, "Beagle dogs (Beagle犬) [11]": {"system": "Beagle dogs (Beagle犬)", "test": "Single-dose intravenous toxicity in Beagle dogs", "type": "in vivo, dog", "settings": "worked out from dog single i.v. MTD"}, "SD rats (SD大鼠) [12]": {"system": "SD rats (SD大鼠)", "test": "Single-dose oral gavage toxicity in SD rats", "type": "in vivo, rat", "settings": "worked out from rat single oral dose"}, "[13]": {"test": "Single-dose oral gavage toxicity in SD rats", "type": "in vivo, rat", "settings": "in vivo; SD rat, single oral gavage, 5000 mg/kg; 14 days observation; read-out: maximum administered dose"}, "[14]": {"system": "reflux oesophagitis and gastritis (反流性食道炎以及抗胃炎)", "settings": "cited from earlier work"}, "[15]": {"system": "rat dementia caused by kainic acid (海人藻酸所致大鼠痴呆)", "settings": "male Wistar rats; cited from earlier work"}, "[16]": {"system": "rat dementia caused by β-amyloid (β-淀粉样蛋白致大鼠痴呆)", "settings": "male Wistar rats; cited from earlier work"}, "[17]": {"settings": "compared with apigenin and omeprazole"}}}
{"compound": "O=c1cc(-c2ccc(O)cc2)oc2cc(O)c(O)c(O)c12", "note": "[野黄芩素]", "values": [{"measurement": "related biological activity", "setting": "[1]", "value": "更强相关生物活性"}, {"measurement": "stability", "setting": "[2]", "value": "在空气中易氧化变为醌类衍生物"}]}
{"compound": "O=C(O)[C@H]1O[C@@H](Oc2cc3oc(-c4ccc(O)cc4)cc(=O)c3c(O)c2O)[C@H](O)[C@@H](O)[C@@H]1O", "note": "[实施例1]", "values": [{"measurement": "NOAEL at 672 h", "setting": "[3]", "value": 25, "unit": "mg/kg"}, {"measurement": "equivalent human daily intake of the NOAEL", "setting": "Beagle dogs (Beagle犬) [4]", "value": 833.3, "unit": "mg"}, {"measurement": "equivalent human daily intake of the NOAEL", "setting": "SD rats (SD大鼠) [5]", "value": 2000, "unit": "mg"}, {"measurement": "NOAEL at 672 h", "setting": "[6]", "value": 200, "unit": "mg/kg"}, {"measurement": "equivalent human daily intake of the MTD", "setting": "SD rats (SD大鼠) [7]", "value": 7500, "unit": "mg"}, {"measurement": "MTD at 336 h", "setting": "[8]", "value": 750, "unit": "mg/kg"}, {"measurement": "clarity test conclusion", "setting": "[9]", "value": "符合规定"}, {"measurement": "MTD at 336 h", "setting": "[10]", "value": 200, "unit": "mg/kg"}, {"measurement": "equivalent human daily intake of the MTD", "setting": "Beagle dogs (Beagle犬) [11]", "value": 6666, "unit": "mg"}]}
{"compound": "O=C(O)[C@H]1O[C@@H](Oc2cc3oc(-c4ccc(O)cc4)cc(=O)c3c(O)c2O)[C@H](O)[C@@H](O)[C@@H]1O", "note": "[实施例2]", "values": [{"measurement": "equivalent human daily intake of the maximum administered dose", "setting": "SD rats (SD大鼠) [12]", "value": 50, "unit": "g"}, {"measurement": "MTD at 336 h", "setting": "[13]", "value": 5000, "unit": "mg/kg"}]}
{"compound": "O=C(O)[C@H]1O[C@@H](Oc2cc(O)c3c(=O)cc(-c4ccc(O)cc4)oc3c2)[C@H](O)[C@@H](O)[C@@H]1O", "note": "[5,4’-二羟基黄酮-7-O-β-D-葡萄糖醛酸]", "values": [{"measurement": "anti-reflux-oesophagitis and anti-gastritis effect", "setting": "[14]; [17]", "value": "比芹菜素和奥美拉唑更有效"}, {"measurement": "reduction of the extent of gastric lesions", "setting": "[14]; [17]", "value": "比芹菜素和奥美拉唑更能有效的减小胃损伤范围"}, {"measurement": "MOA content produced by induced reflux oesophagitis", "setting": "[14]; mouse, in vivo", "value": "减少由诱导反流性食管炎而产生的MOA的含量"}, {"measurement": "antioxidant activity", "setting": "[14]; mouse, in vivo", "value": "有抗氧化活性"}, {"measurement": "glutathione (GSH) produced in acute oesophagitis", "setting": "[14]; mouse, in vivo", "value": "清除急性食管炎产生的谷胱甘肽(GSH)"}, {"measurement": "effect on pathological changes of brain tissue", "setting": "[15]", "value": "有一定改善作用"}, {"measurement": "effect on pathological damage of cerebral cortex and hippocampus", "setting": "[16]", "value": "可减轻β-淀粉样蛋白所致大鼠脑皮层及海马的病理损害"}, {"measurement": "therapeutic effect on dementia", "setting": "[16]", "value": "有一定的治疗作用"}]}
